Structures are written as SMILES. Several values for one entry are separate records, joined by “and”; a condition that tells them apart may be missing. Equal entries are not always repeated.

A short description of this assay: Agonist activity at recombinant human CB1 receptor expressed in CHO-K1 cells assessed as increase in cAMP accumulation after 20 mins by HTRF assay.

For the compound `CCCCCCC(C)(C)c1ccc2c(c1)OC(C)(C)[C@@H]1CCC(CO)=C[C@@H]21`, the 50% effective concentration (EC50) turned out to be 0.0012 µM.
Then `COc1cc(OC(=O)NCCCCN2CCN(c3cccc(Cl)c3Cl)CC2)ccc1-c1ccccc1`, with 0.22 µM and 0.219 µM.
Turning to `CCCCCc1cc(O)c2c(c1)OC(C)(C)[C@@H]1CCC(C)=C[C@@H]21` [(10R,10aR)-6,6,9-Trimethyl-3-pentyl-6a,7,8,10a-tetrahydro-6H-benzo[c]chromen-1-ol], the EC50 was found to be 0.01 µM.
Then `COc1ccccc1N1CCN(CCCCNC(=O)Oc2ccc3c(c2)[nH]c2ccccc23)CC1`, with 2.3 µM and 2.34 µM; and `CCCC(C)(C)c1ccc2c(c1)OC(C)(C)[C@@H]1CCC(C)=C[C@@H]21`, with 0.667 µM.

Usually EC50 stands for the concentration that produces a half-maximal response.

These data come from BindingDB's records for doi:10.1021/acs.jmedchem.6b01578 (University of Bologna, 2017).
